{"source": "PubChem BioAssay AID248", "about": "(DTP/NCI, 2004)", "tested_on": "L1210 leukemia ip in BDF1 mice, survival T/C", "assay": "NCI In Vivo Anticancer Drug Screen. Data for tumor model L1210 Leukemia (intraperitoneal) in B6D2F1 (BDF1) mice", "settings": "endpoint: mean survival time, higher = longer survival", "procedure,_shortened": "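Ratio derived from survival: compound-dosed mice over vehicle-dosed mice, all bearing a transplantable tumor.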", "key": {"[1]": {"settings": "dose: 100.0 mg/kg/injection, schedule: Q01DX009 (ip), vehicle: Klucel (hydroxypropylcellulose) (HPC)"}, "[2]": {"settings": "dose: 100.0 mg/kg/injection, schedule: Q04DX003 (ip), vehicle: Klucel (hydroxypropylcellulose) (HPC)"}, "[3]": {"settings": "dose: 200.0 mg/kg/injection, schedule: Q01DX009 (ip), vehicle: Klucel (hydroxypropylcellulose) (HPC)"}, "[4]": {"settings": "dose: 400.0 mg/kg/injection, schedule: Q01DX009 (ip), vehicle: Klucel (hydroxypropylcellulose) (HPC)"}, "[5]": {"settings": "dose: 400.0 mg/kg/injection, schedule: Q04DX003 (ip), vehicle: Klucel (hydroxypropylcellulose) (HPC)"}}, "note": "Toxic doses and inconclusive results are not listed."}
{"smiles": "CC(N)C(=O)Nc1ccccc1", "note": "(stereo not given)", "values": [{"measurement": "T/C", "setting": "dose: 100.0 mg/kg/injection, schedule: Q01DX009 (ip), vehicle: water", "result": "94 % of control"}, {"measurement": "T/C", "setting": "dose: 100.0 mg/kg/injection, schedule: Q04DX003 (ip), vehicle: water", "result": "97 % of control"}, {"measurement": "T/C", "setting": "dose: 200.0 mg/kg/injection, schedule: Q01DX009 (ip), vehicle: water", "result": "100 % of control"}, {"measurement": "T/C", "setting": "dose: 200.0 mg/kg/injection, schedule: Q04DX003 (ip), vehicle: water", "result": "103 % of control"}, {"measurement": "T/C", "setting": "dose: 400.0 mg/kg/injection, schedule: Q01DX009 (ip), vehicle: water", "result": "100 % of control"}, {"measurement": "T/C", "setting": "dose: 400.0 mg/kg/injection, schedule: Q04DX003 (ip), vehicle: water", "result": "97 % of control"}]}
{"smiles": "C=CCN(CC=C)C(=S)[S-].C=CCN(CC=C)C(=S)[S-].[Zn]", "values": [{"measurement": "T/C", "setting": "dose: 1.25 mg/kg/injection, schedule: Q01DX009 (ip), vehicle: saline", "result": "101 % of control"}, {"measurement": "T/C", "setting": "dose: 2.5 mg/kg/injection, schedule: Q01DX009 (ip), vehicle: saline", "result": "93 % of control"}, {"measurement": "T/C", "setting": "dose: 5.0 mg/kg/injection, schedule: Q01DX009 (ip), vehicle: saline", "result": "87 % of control"}, {"measurement": "T/C", "setting": "dose: 5.0 mg/kg/injection, schedule: Q04DX003 (ip), vehicle: saline", "result": "90 % of control"}, {"measurement": "T/C", "setting": "dose: 10.0 mg/kg/injection, schedule: Q01DX001 (ip), vehicle: saline", "result": "86 % of control"}, {"measurement": "T/C", "setting": "dose: 10.0 mg/kg/injection, schedule: Q04DX003 (ip), vehicle: saline", "result": "92 % of control"}, {"measurement": "T/C", "setting": "dose: 20.0 mg/kg/injection, schedule: Q01DX001 (ip), vehicle: saline", "result": "95 % of control"}]}
{"smiles": "O=C(O)Cc1ccc(I)cc1", "values": [{"measurement": "T/C", "setting": "dose: 100.0 mg/kg/injection, schedule: Q04DX003 (ip), vehicle: gum acacia", "result": "98 % of control"}, {"measurement": "T/C", "setting": "dose: 200.0 mg/kg/injection, schedule: Q04DX003 (ip), vehicle: gum acacia", "result": "96 % of control"}, {"measurement": "T/C", "setting": "dose: 400.0 mg/kg/injection, schedule: Q04DX003 (ip), vehicle: gum acacia", "result": "94 % of control"}]}
{"smiles": "COc1ccc(OC2CCCCC2OS(C)(=O)=O)cc1", "note": "(stereo not given)", "values": [{"measurement": "T/C", "setting": "dose: 100.0 mg/kg/injection, schedule: Q01DX001 (ip), vehicle: Klucel (hydroxypropylcellulose) (HPC)", "result": "104 % of control"}, {"measurement": "T/C", "setting": "[1]", "result": "96 % of control"}, {"measurement": "T/C", "setting": "[2]", "result": "102 % of control"}, {"measurement": "T/C", "setting": "dose: 200.0 mg/kg/injection, schedule: Q01DX001 (ip), vehicle: Klucel (hydroxypropylcellulose) (HPC)", "result": "103 % of control"}, {"measurement": "T/C", "setting": "[3]", "result": "104 % of control"}, {"measurement": "T/C", "setting": "dose: 200.0 mg/kg/injection, schedule: Q04DX003 (ip), vehicle: Klucel (hydroxypropylcellulose) (HPC)", "result": "102 % of control"}, {"measurement": "T/C", "setting": "dose: 400.0 mg/kg/injection, schedule: Q01DX001 (ip), vehicle: Klucel (hydroxypropylcellulose) (HPC)", "result": "108 % of control"}, {"measurement": "T/C", "setting": "[4]", "result": "106 % of control"}, {"measurement": "T/C", "setting": "[5]", "result": "101 % of control"}]}
{"smiles": "O=[N+]([O-])c1ccccc1N=N/C(Cc1ccccc1)=N\\Nc1ccccc1", "values": [{"measurement": "T/C", "setting": "dose: 50.0 mg/kg/injection, schedule: Q01DX009 (ip), vehicle: Klucel (hydroxypropylcellulose) (HPC)", "result": "92 % of control"}, {"measurement": "T/C", "setting": "[1]", "result": "92 % of control"}, {"measurement": "T/C", "setting": "[2]", "result": "89 % of control"}, {"measurement": "T/C", "setting": "[3]", "result": "93 % of control"}, {"measurement": "T/C", "setting": "[4]", "result": "94 % of control"}, {"measurement": "T/C", "setting": "[5]", "result": "92 % of control"}]}
{"smiles": "CC1=C(C)CC2C(=O)c3c(O)ccc(O)c3C(=O)C2C1", "note": "(stereo not given)", "values": [{"measurement": "T/C", "setting": "dose: 100.0 mg/kg/injection, schedule: Q04DX002 (ip), vehicle: saline with Tween-80", "result": "91 % of control"}, {"measurement": "T/C", "setting": "dose: 200.0 mg/kg/injection, schedule: Q04DX002 (ip), vehicle: saline with Tween-80", "result": "95 % of control"}, {"measurement": "T/C", "setting": "dose: 400.0 mg/kg/injection, schedule: Q04DX002 (ip), vehicle: saline with Tween-80", "result": "91 % of control"}]}
{"smiles": "CCOP(=S)(N1CC1(C)C)N1CC1(C)C", "note": "(stereo not given)", "values": [{"measurement": "T/C", "setting": "dose: 12.5 mg/kg/injection, schedule: Q01DX015 (ip), vehicle: carboxymethylcellulose (CMC)", "result": "105 % of control"}, {"measurement": "T/C", "setting": "dose: 25.0 mg/kg/injection, schedule: Q01DX015 (ip), vehicle: carboxymethylcellulose (CMC)", "result": "105 % of control"}, {"measurement": "T/C", "setting": "dose: 50.0 mg/kg/injection, schedule: Q01DX015 (ip), vehicle: carboxymethylcellulose (CMC)", "result": "111 % of control"}, {"measurement": "T/C", "setting": "dose: 100.0 mg/kg/injection, schedule: Q01DX015 (ip), vehicle: carboxymethylcellulose (CMC)", "result": "152 % of control"}, {"measurement": "T/C", "setting": "dose: 200.0 mg/kg/injection, schedule: Q01DX015 (ip), vehicle: carboxymethylcellulose (CMC)", "result": "164 % of control"}]}
{"smiles": "CCOC(=O)Nc1cc(NCC(O)CN(C)c2ccccc2)c([N+](=O)[O-])c(N)n1", "note": "(stereo not given)", "values": [{"measurement": "T/C", "setting": "dose: 100.0 mg/kg/injection, schedule: Q01DX001 (ip), vehicle: carboxymethylcellulose (CMC)", "result": "95 % of control"}, {"measurement": "T/C", "setting": "dose: 200.0 mg/kg/injection, schedule: Q01DX001 (ip), vehicle: carboxymethylcellulose (CMC)", "result": "95 % of control"}, {"measurement": "T/C", "setting": "dose: 400.0 mg/kg/injection, schedule: Q01DX001 (ip), vehicle: carboxymethylcellulose (CMC)", "result": "92 % of control"}]}
{"smiles": "O=C1c2ccccc2C(=O)N1CNc1ccc(Cl)cn1", "values": [{"measurement": "T/C", "setting": "dose: 100.0 mg/kg/injection, schedule: Q01DX009 (ip), vehicle: saline with Tween-80", "result": "89 % of control"}, {"measurement": "T/C", "setting": "dose: 200.0 mg/kg/injection, schedule: Q01DX009 (ip), vehicle: saline with Tween-80", "result": "87 % of control"}, {"measurement": "T/C", "setting": "dose: 400.0 mg/kg/injection, schedule: Q01DX009 (ip), vehicle: saline with Tween-80", "result": "101 % of control"}]}
